How the values were obtained:
[1] = target: T1, Thromboxane A2 receptor (Homo sapiens, UniProt P21731); assay: In vitro thromboxane receptor antagonism was determined using a human platelet binding assay
T1 sequence (P21731 whole entry): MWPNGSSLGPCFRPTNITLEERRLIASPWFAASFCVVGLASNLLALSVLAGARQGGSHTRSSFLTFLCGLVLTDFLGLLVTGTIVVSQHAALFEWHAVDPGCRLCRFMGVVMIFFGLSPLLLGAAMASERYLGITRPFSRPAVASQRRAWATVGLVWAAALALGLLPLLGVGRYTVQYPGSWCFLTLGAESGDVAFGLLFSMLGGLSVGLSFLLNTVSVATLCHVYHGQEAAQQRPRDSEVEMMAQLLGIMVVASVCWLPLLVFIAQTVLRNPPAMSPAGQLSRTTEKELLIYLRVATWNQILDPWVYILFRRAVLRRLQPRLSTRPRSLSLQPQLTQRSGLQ

[2] = target: T2, Thromboxane-A synthase (Homo sapiens, UniProt P24557); assay: In vitro inhibition of thromboxane synthase (TSI) activity was determined by using human serum levels of TXB2; type: cell-free
T2 sequence (P24557 whole entry): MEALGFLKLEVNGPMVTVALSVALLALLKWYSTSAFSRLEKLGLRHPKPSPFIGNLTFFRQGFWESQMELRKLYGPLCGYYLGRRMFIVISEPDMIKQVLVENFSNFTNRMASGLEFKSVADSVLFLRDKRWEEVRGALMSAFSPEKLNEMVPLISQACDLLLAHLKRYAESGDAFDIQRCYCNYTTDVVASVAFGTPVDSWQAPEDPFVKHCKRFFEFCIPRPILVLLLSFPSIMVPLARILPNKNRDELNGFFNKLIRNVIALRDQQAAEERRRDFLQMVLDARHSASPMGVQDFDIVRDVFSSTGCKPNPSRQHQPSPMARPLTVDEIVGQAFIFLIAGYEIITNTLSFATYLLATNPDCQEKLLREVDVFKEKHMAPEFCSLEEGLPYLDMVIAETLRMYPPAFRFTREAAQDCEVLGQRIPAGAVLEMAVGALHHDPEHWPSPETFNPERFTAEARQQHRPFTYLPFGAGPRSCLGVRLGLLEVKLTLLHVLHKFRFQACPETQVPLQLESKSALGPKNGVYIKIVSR

[3] = Partition coefficient (logP); type: physicochemical; details: octanol/water

Structure (SMILES)	Kd [1]	IC50 [2]	logP [3]
CCCCCNC(=O)c1coc(-c2ccc(/C(=C\CCCCC(=O)O)c3cccnc3)cc2)n1	153 nM	31.2 nM	5.23
O=C(O)CCCC/C=C(/c1cccnc1)c1cccc(-c2nc(C(=O)NCCCCC3CCCCC3)co2)c1	12.3 nM	19 nM	–
O=C(O)CCCC/C=C(\c1ccc(C2=N[C@@H](C(=O)NCCCCC3CCCCC3)CO2)cc1)c1cccnc1	–	82.1 nM	–
O=C(O)CCCC/C=C(/c1ccc(C2=N[C@@H](C(=O)NCCCCC3CCCCC3)CO2)cc1)c1cccnc1	–	> 10000 nM	–
O=C(O)CCCC/C=C(/c1ccc(-c2nc(C(=O)NCCCCC3CCCCC3)co2)cc1)c1cccnc1	147 nM	–	–
O=C(O)CCCC/C=C(\c1ccccc1)c1cccnc1 [(E)-ISBOGREL]	8200 nM	–	–

Now from value to compound:

Kd [1]	IC50 [2]	logP [3]	Structure (SMILES)
1500 nM	–	–	O=C(O)CCCC/C=C(\c1cccnc1)c1ccccc1-c1nc(C(=O)NCCCCC2CCCCC2)co1
540 nM	–	–	O=C(O)CCCC/C=C(/c1cccnc1)c1ccccc1-c1nc(C(=O)NCCCCC2CCCCC2)co1
830 nM	–	–	O=C(O)CCCC/C=C(\c1cccnc1)c1cccc(C2=N[C@@H](C(=O)NCCCCC3CCCCC3)CO2)c1
–	550 nM	7.35	O=C(O)CCCC/C=C(\c1ccc(-c2nc(C(=O)NCCCCC3CCCCC3)co2)cc1)c1cccnc1
244 nM	–	–	CCCCCNC(=O)[C@@H]1COC(c2ccc(/C(=C\CCCCC(=O)O)c3cccnc3)cc2)=N1
93.3 nM	3170 nM	–	O=C(O)CC/C=C(\c1ccc(-c2nc(C(=O)NCCCCC3CCCCC3)co2)cc1)c1cccnc1
630 nM	23 nM	–	O=C(O)CCCC/C=C(\c1cccnc1)c1cccc(-c2nc(C(=O)NCCCCC3CCCCC3)co2)c1

Reference: ChEMBL document CHEMBL1130899, “Development of dual-acting agents for thromboxane receptor antagonism and thromboxane synthase inhibition. 2. Design, synthesis, and evaluation of a novel series of phenyl oxazole derivatives” (Bioorg Med Chem Lett, 1998)
